The source of these data is patent US20230257383A1, “COMPOUND SERVING AS BTK INHIBITOR, PREPARATION METHOD THEREFOR, AND USE THEREOF” (CHENGDU HYPERWAY PHARMACEUTICALS CO., LTD., priority 2020, published 2023).

In data set [1] the test system is DOHH2 cell proliferation. Put plainly: In vitro cell proliferation inhibitory activity test (CTG), DOHH2. It counts as cell-based. The following applies: Homo sapiens, DOHH-2. How it is done:
(§1) Test Example 4: In Vitro Cell Proliferation Inhibitory Activity Test
(§2) Cells were cultured in 1640 medium, added with 10% inactivated FBS and 1% double antibiotics, and cultured at 37° C. and 5% CO2.
(§3) (1) Cells were routinely cultured until the cell density was 80%-90%, and the cells were harvested when their number reached the requirement.
(§4) (2) Cells were resuspended with corresponding culture medium, counted, and prepared into cell suspension at appropriate density.
(§5) (3) The cell suspension was added to a 96-well plate, 100 μL per well.
(§6) (4) Cells were cultured overnight in a 37° C., 5% CO2 incubator.
(§7) (1) The compounds to be tested were diluted with DMSO to make a stock solution with a final concentration of 20 mM for later use.
(§8) (2) The stock solution was diluted 10 times from 20 mM to 2 mM with DMSO, and then diluted 3 times from 2 mM to 9 concentrations.
(§9) (3) The blank control wells were cells plus 0.5% DMSO, as high-reading control wells.
(§10) (4) Wells with no cells and only medium were used as low-reading control wells.
(§11) 4: Cell treatment with compound
(§12) (1) 24 h after the cells were plated, the compounds acted alone, and 99 μL of growth medium was added to each well, followed by 1 μL of the compound prepared in step 3. The plate was shaken gently to mix uniformly, and then placed in a 37° C., 5% CO2 incubator.
(§13) (2) The cell plate was placed in an incubator for 72 h.
(§14) 5: Detection by CTG method
(§15) (1) The cell plate to be tested was placed at room temperature for 30 min, and 100 μL of medium was discarded from each well.
(§16) (2) 100 μL of CTG reagent (CelltiterGlo kit) was added to each well, placed on a fast shaker for 2 min, and stood at room temperature in the dark for 30 min.
(§17) (3) The chemiluminescent signal value was read with the Envision instrument.
(§18) IC50 was calculated by using GraphPad Prism 8 software. The IC50 (half inhibitory concentration) of the compound was derived using the following nonlinear fitting formula, and the results are shown in the following table:
(§19) Y=Bottom+(Top−Bottom)/(1+10^((Log IC50−X)×HillSlope))
(§20) X: log value of compound concentration, Y: inhibition rate (% inhibition)
(§21) Inhibition rate (% inhibition)=(reading of high-reading control well-reading of compound well)/(reading of high-reading control well-reading of low-reading control well)×100

The test system of data set [2] is TMD8 mouse subcutaneous xenograft tumor. Kind of data set: TMD8 pharmacodynamic model test. The data set is classed as in vivo. The following applies: same dose of 20 mg/kg, FIG. 2. How it is done:
Test Example 7: TNMD8 Pharmacodynamic Model Test
Human diffuse large B-cell lymphoma TMD8 cells were monolayer-cultured in vitro in RPNHI1640 medium with […], 100 U/mL penicillin and 100 μg/mL streptomycin, in a 37° C., […] incubator. Routine digestion with trypsin-EDTA was performed twice a week for passaging. When the cell density was […] and the number reached the requirement, cells were harvested, counted and inoculated. 0.2 ml (1×10^7 cells) of TMVD8 cells (added with matrigel at a volume ratio of 1:1) were subcutaneously inoculated on the right back of each mouse. The mice were administered in groups when the average tumor volume reached about 137 mm^3. Tumor diameters were measured twice a week with vernier calipers. The tumor volume was calculated by the formula V=0.5 a×b^2, where a and b represent the long and short diameters of the tumor, respectively.

A short description of data set [3]: Liver microsome metabolic stability test (rat). The following applies: for microsomal CLint: read-out: CLint (μL/min/mg) Rat. It counts as in vitro ADME. An outline of the steps: (§22)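 Human or rat liver microsomes (working solution 0.5 mg/mL protein) were pre-incubated with compound at 37 °C. The reaction was started with NADPH regeneration system and quenched with ac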

The nature of data set [4]: Liver microsome metabolic stability test (human). Conditions: for microsomal CLint: read-out: CLint (μL/min/mg) Human. It counts as in vitro ADME. The essentials: as §22
For orientation: Liver microsomes are vesicles of endoplasmic reticulum, rich in cytochrome P450 enzymes.

Data set [5] deals with NCI-N87 cell proliferation. Kind of data set: In vitro cell proliferation inhibitory activity test (CTG), NCI-N87. Conditions: Homo sapiens. The data set is classed as cell-based. How it is done:
as §1, §2, §3, §4, §5, §6, §7, §8, §9, §10, §11, §12, §13, §14, §15, §16, §17, §18, §19, §20, §21

As usually defined, the IC50 is the midpoint of a concentration-inhibition curve. As for `Nc1nccn2c(C3CCC(CO)OC3)nc(-c3ccc(C(F)(F)c4ccccc4)cc3)c12` (single isomer, unassigned) [Example 111-P1], in data set [1], the IC50 was determined as 116 nM. In addition, the “inhibitory effect against the tumor compared with Tirabrutinib” value in data set [2] is on record as “significantly better inhibitory effect against the tumor than Tirabrutinib”.
Take `Nc1nccn2c(C34CCC(CO)(CC3)OC4)nc(-c3ccc(C(F)(F)c4ccccc4)cc3)c12` [Example 125]: in data set [1], the IC50 amounted to 114 nM. The figures for the microsomal CLint in data set [3] (liver microsomes) and in data set [4] (liver microsomes) were 21.7 µL/min/mg and 14.6 µL/min/mg, respectively. For the same compound, in data set [2], the “inhibitory effect against the tumor compared with Tirabrutinib” value is “significantly better inhibitory effect against the tumor than Tirabrutinib”.
`Nc1nccn2c(C34CCC(CO)(CC3)OC4)nc(-c3ccc(C(F)(F)c4ccccc4F)cc3)c12` [Example 145]: the “% Remaining (60 min) Rat” value in data set [3] (60 min) was 49.6%. Further, the half-life amounted to 60.8 min in data set [3] (liver microsomes, 0.5 mg/mL protein, read-out: T1/2 (min) Rat) and 61.2 min in data set [4] (liver microsomes, 0.5 mg/mL protein, read-out: T1/2 (min) Human). Moreover, the microsomal CLint amounted to 22.8 µL/min/mg in data set [3] (liver microsomes) and 22.7 µL/min/mg in data set [4] (liver microsomes). The compound further registered an IC50 in data set [5] of 37.5 nM. In addition, the “% Remaining (60 min) Human” value in data set [4] (60 min) came out at 46.2%.
As to `Nc1nccn2c(C34CCC(CO)(CC3)OC4)nc(-c3ccc(C(F)(F)c4cccc(Cl)c4F)cc3)c12` [Example 152], the microsomal CLint in data set [3] (liver microsomes) was determined as 102 µL/min/mg; in data set [4] (liver microsomes) it was 45.9 µL/min/mg. The compound further returned an IC50 in data set [5] of 43.4 nM.
As for `Nc1nccn2c(C34CCC(CO)(CC3)OC4)nc(-c3ccc(C(F)(F)c4ccccc4Cl)cc3)c12` [Example 155], the values for the microsomal CLint in data set [3] (liver microsomes) and in data set [4] (liver microsomes) were 62.2 µL/min/mg and 41.7 µL/min/mg, respectively.
For the compound `Cc1cc(Nc2ncnc3ccc(NC4=NC(C)(C)CO4)cc23)ccc1Oc1ccn2ncnc2c1` [Tucatinib, reference compound], the microsomal CLint stood at 34.9 µL/min/mg in data set [3] (liver microsomes) and 43.7 µL/min/mg in data set [4] (liver microsomes). Besides, in data set [5], the IC50 was 26 nM.
